In ChEMBL document CHEMBL5370591, “A Potent and Narrow-Spectrum Antibacterial against Clostridioides difficile Infection” (J Med Chem, 2023) one finds IC50, selectivity ratio and MIC data, which are given here for 35 compounds.

In brackets after ≈: the same amount, converted by molar mass.

One series deals with THP-1. As to the kind of experiment: Cytotoxicity against human THP-1 cells assessed as increase in LDH release incubate for 24 hrs by trypan-blue staining based analysis. The series is classed as functional, cell-based. The note with it: THP-1, 24 h. (Release of lactate dehydrogenase indicates damage to the cell membrane.)
The nature of series [1]: Selectivity ratio of IC50 for human THP-1 cells to MIC for Clostridium difficile ATCC 43255. The series is classed as toxicity.
The next series has as its system Clostridioides difficile. Put plainly: Antibacterial activity against Clostridium difficile ATCC 43255 measured after 48 hrs by two fold serial dilution method. The series is classed as functional.

The term IC50 denotes the concentration needed to halve the response being measured. The term MIC denotes the lowest concentration that inhibits growth of the organism. Read a high MIC as a less susceptible organism. `Oc1ccc(-c2nc(-c3ccc(Oc4ccc(C(F)(F)F)cc4)cc3)no2)cc1`: in the series on THP-1, the IC50 came out at 17 µg/mL (≈ 42.7 µM). Besides, the selectivity ratio in series [1] turned out to be 9. This compound also returned a minimum inhibitory concentration (MIC) against Clostridioides difficile of 2 µg/mL (≈ 5.02 µM).

In the case of `O=[N+]([O-])c1c[nH]nc1-c1nc(-c2ccc(Oc3ccc(C(F)(F)F)cc3)cc2)no1`, in the series on THP-1, the concentration for half-maximal inhibition (IC50) amounted to 21 µg/mL (≈ 50.3 µM). For the same compound, the selectivity ratio in series [1] was 5. The compound further yielded a minimum inhibitory concentration (MIC) against Clostridioides difficile of 4 µg/mL (≈ 9.59 µM).

Take `Oc1ccc(-c2nc(-c3ccc(OC4CCCCC4Br)cc3)no2)cc1` (centres undefined): the IC50 in the series with THP-1 amounted to 8.4 µg/mL (≈ 20.2 µM). For the same compound, the selectivity ratio in series [1] amounted to 4. The compound also returned a minimal inhibitory concentration (MIC) with Clostridioides difficile of 2 µg/mL (≈ 4.82 µM).

Take `Oc1ccc(-c2nc(-c3ccc(Oc4cccc(I)c4)cc3)no2)cc1`: the IC50 in the series with THP-1 worked out at 17 µg/mL (≈ 37.3 µM). Further, the selectivity ratio in series [1] is 4.

For `Oc1ccc(-c2nc(-c3ccc(Oc4ccccc4)cc3)no2)cc1`, in the series with THP-1, the IC50 turned out to be 17 µg/mL (≈ 51.5 µM). Also, the selectivity ratio in series [1] turned out to be 8. Also, in the series on Clostridioides difficile, the minimal inhibitory concentration (MIC) was 2 µg/mL (≈ 6.05 µM).

As for `O=[N+]([O-])c1ccccc1Oc1ccc(-c2noc(-c3ccc(O)cc3)n2)cc1`, the 50% inhibitory concentration (IC50) in the series on THP-1 was found to be 16 µg/mL (≈ 42.6 µM). The selectivity ratio in series [1] was found to be 3. The minimal inhibitory concentration (MIC) in the series on Clostridioides difficile was determined as 4 µg/mL (≈ 10.7 µM).

For `Cl.NCc1ccc(-c2nc(-c3ccc(Oc4ccc(C(F)(F)F)cc4)cc3)no2)cc1`, the selectivity ratio in series [1] was determined as 1. Moreover, in the series on Clostridioides difficile, it took 4 µg/mL to inhibit growth (MIC).

On to `O=[N+]([O-])c1c[nH]nc1-c1nc(-c2ccc(Oc3ccc(I)cc3)cc2)no1`, for which the IC50 in the series with THP-1 was determined as 100 µg/mL (≈ 210 µM). Besides, the selectivity ratio in series [1] turned out to be 25. Besides, in the series with Clostridioides difficile, the MIC is 4 µg/mL (≈ 8.42 µM).

For the compound `Oc1ccc(-c2nc(-c3ccc(Oc4ccc(C(F)(F)F)cc4)cc3)no2)cc1F`, the IC50 with THP-1 was 5.2 µg/mL (≈ 12.5 µM). The selectivity ratio in series [1] was found to be 1. This compound also registered an MIC with Clostridioides difficile of 4 µg/mL (≈ 9.61 µM).

`O=[N+]([O-])c1c[nH]nc1-c1nc(-c2ccc(OC(F)(F)F)cc2)no1`: in the series with THP-1, the IC50 is 25 µg/mL (≈ 73.3 µM). In addition, the selectivity ratio in series [1] stood at 6. The same compound gave an MIC in the series on Clostridioides difficile of 4 µg/mL (≈ 11.7 µM).

As to `c1cc2cc(-c3nc(-c4ccc5c(c4)CCN5)no3)ccc2[nH]1`, the minimum inhibitory concentration (MIC) in the series on Clostridioides difficile is above 128 µg/mL.

In the series with Clostridioides difficile, `Cl.Nc1nc(-c2ccc(OC3CCCC3)cc2)no1` yielded an MIC above 128 µg/mL.

On to `O=[N+]([O-])c1cc(Oc2ccc(C(F)(F)F)cc2)cnc1-c1noc(-c2ccc(O)cc2)n1`, for which, in the series with Clostridioides difficile, the MIC was above 128 µg/mL.

In the series on Clostridioides difficile, `Oc1ccc(-c2nc(-c3ccc(Oc4ccccc4CBr)cc3)no2)cc1` returned an MIC of 8 µg/mL (≈ 18.9 µM).

`CCCCOc1ccc(-c2noc(-c3ccc(O)cc3)n2)cc1` registered an MIC with Clostridioides difficile above 128 µg/mL.

`CCCOc1ccc(-c2noc(-c3ccc(O)cc3)n2)cc1` yielded an MIC against Clostridioides difficile above 128 µg/mL.

In the series with Clostridioides difficile, `Oc1ccc(-c2nc(-c3ccc(Oc4ccc(I)cc4)cc3)no2)cc1` returned an MIC of 16 µg/mL (≈ 35.1 µM).

As for `O=[N+]([O-])c1cc(-c2nc(-c3ccc(Oc4ccc(C(F)(F)F)cc4)cc3)no2)cnc1O`, the half-maximal inhibitory concentration (IC50) in the series on THP-1 is 37 µg/mL (≈ 83.3 µM). Moreover, in series [1], the selectivity ratio was determined as 19. The compound further gave an MIC with Clostridioides difficile of 2 µg/mL (≈ 4.5 µM).

Consider `O=[N+]([O-])c1ccc(-c2noc(-c3ccc4[nH]ccc4c3)n2)cc1`, for which the MIC in the series on Clostridioides difficile was above 128 µg/mL.

In turn, `Oc1ccc(-c2nc(-c3ccc4oc5ccc(C(F)(F)F)cc5c4c3)no2)cc1` returned an MIC in the series with Clostridioides difficile above 128 µg/mL.

`Fc1ccccc1-c1noc(-c2ccc3[nH]ccc3c2)n1` returned an MIC against Clostridioides difficile above 128 µg/mL.

The compound `Oc1ccc(-c2nc(-c3ccc4[nH]c5ccccc5c4c3)no2)cc1` returned an MIC in the series with Clostridioides difficile above 128 µg/mL.

`Cl.Oc1ccc(-c2nc(-c3ccc(OC4CCNC4)cc3)no2)cc1` (centres undefined): it took 64 µg/mL to inhibit growth in the series with Clostridioides difficile (MIC).

On to `Oc1ccc(-c2noc(-c3ccc(OC4CCCC4)cc3)n2)cc1`, for which the IC50 in the series with THP-1 stood at 8.5 µg/mL (≈ 26.4 µM). Further, the selectivity ratio in series [1] is 2. Further, in the series on Clostridioides difficile, the lowest concentration to inhibit growth (MIC) was 4 µg/mL (≈ 12.4 µM).

For `CCOc1ccc(-c2noc(-c3ccc(O)cc3)n2)cc1`, the MIC with Clostridioides difficile is above 128 µg/mL.

Turning to `FC(F)(F)c1ccc(Oc2ccc(-c3noc(-c4n[nH]cc4Nc4c[nH]c5ncccc45)n3)cc2)cc1`, the MIC against Clostridioides difficile is above 128 µg/mL.

In the series on Clostridioides difficile, `Oc1ccc(-c2nnc(-c3ccc(OC4CCCC4)cc3)o2)cc1` registered an MIC above 128 µg/mL.

Consider `Cl.NCCCCc1nc(-c2ccc(OC3CCCC3)cc2)no1`, for which inhibition of growth against Clostridioides difficile (MIC) required 128 µg/mL.

The compound `CC(C)(C)OC(=O)N1CCC(Nc2c[nH]nc2-c2nc(-c3ccc(Oc4ccc(C(F)(F)F)cc4)cc3)no2)CC1` returned an MIC with Clostridioides difficile above 128 µg/mL.

As for `O=[N+]([O-])c1c[nH]nc1-c1nc(-c2ccc3oc4ccccc4c3c2)no1`, the selectivity ratio in series [1] is 2. Further, the MIC in the series on Clostridioides difficile was 4 µg/mL (≈ 11.5 µM).

On to `O=C1C[C@H](c2nc(-c3ccc(Oc4ccc(C(F)(F)F)cc4)cc3)no2)CN1`, for which the MIC in the series on Clostridioides difficile was above 128 µg/mL.

Regarding `FC(F)(F)c1ccc(Oc2ccc(-c3noc(-c4cn[nH]c4)n3)cc2)cc1`, the minimum inhibitory concentration (MIC) against Clostridioides difficile is above 128 µg/mL.

For `Oc1c(F)cc(-c2nc(-c3ccc(Oc4ccc(C(F)(F)F)cc4)cc3)no2)cc1F`, the IC50 with THP-1 turned out to be 18 µg/mL (≈ 41.4 µM). Moreover, the selectivity ratio in series [1] was 4.

In the case of `CS(=O)(=O)Nc1ccc(-c2nc(-c3ccc(OC4CCCC4)cc3)no2)cc1`, the minimal inhibitory concentration (MIC) in the series with Clostridioides difficile was above 128 µg/mL.

`FC(F)(F)c1ccc(Oc2ccc(-c3noc(-c4cc[nH]n4)n3)cc2)cc1` yielded an MIC in the series on Clostridioides difficile above 128 µg/mL.
